These results are taken from patent US10450258B2, “Substituted aromatic compounds for the treatment of pulmonary fibrosis, liver fibrosis, skin fibrosis and cardiac fibrosis” (PROMETIC PHARMA SMT LIMITED, priority 2013, dated 2019).

Structures can show the parent of a compound that is named as a salt.

Experiment [1] relates to CCl4-induced liver fibrosis mouse model. Kind of experiment: CCl4-induced liver fibrosis mouse model. Type of experiment: in vivo, mouse (male C57BL/6). Conditions: CCl4 twice a week for 8 weeks; oral 100 and 200 mg/kg every day, day 1 to day 58; FIG. 22. The source says:
Hepatic fibrosis is an outcome of many chronic liver diseases, including hepatitis B virus, hepatitis C virus, alcoholic liver disease, non-alcoholic steatohepatitis and diverse chronic intoxication. It was thus desired to evaluate the effect of Compound I on murine CCl4-induced liver fibrosis. Intoxication with CCl4 results in hepatocyte damage, necrosis, inflammation, and fibrosis, which spreads to link the vascular structures that feed into and drain the hepatic sinusoid (the portal tract and central vein radical, respectively), and over 8-30 weeks results in the development of fibrosis to hepatocellular carcinoma. Therefore, evaluation of candidate antifibrotic drugs such as Compound I can be undertaken by treatment of the mice at appropriate time points and histologic, biochemical and cellular readouts may be used to monitor candidate drug efficacy in this model.
CCl4 (10% in corn oil, 2 ml/kg) was intraperitoneally injected twice a week for 16 weeks in male C57BL/6. Compound I (200 mg/kg) was orally administered every day from day 1 to day 113. Mice were euthanasized and histology and liver fibrotic markers were analyzed.
To determine if Compound I has an effect on liver fibrosis, hydroxyproline level was used to measure the collagen content in the tissue, which is indicative of liver fibrosis.
The reduction of collagen level in liver tissue was also observed in histological micrographs using the Masson's Trichrome staining.
The Masson's trichrome stain the cytoplasm, keratin, muscle fibers and intracellular fibers in red colour; nuclei in black colour and collagen (fibrous tissue) in blue color.
Another experiment has been performed with Compound 1 and Compound V where CCL4 (10% in olive oil, 2 ml/kg) was intraperitoneally injected twice a week for 8 weeks in male C57BL/6. Compound 1 and compound V were orally administered (100 and 200 mg/kg) every day from day 1 to day 58. Mice were euthanasized and collagen content (marker of fibrosis) in the liver was quantified by histomorphometry using Masson's trichrome staining.

Experiment [2] deals with collagen 1 mRNA in HK-2 cells (epithelial cells). The experiment can be described thus: Inhibition of collagen mRNA in TGF-β-treated HK-2 epithelial cells. It is filed as cell-based. To be noted: Homo sapiens, HK-2, compound 0.5 mM. As for the experimental part:
(§1) CTGF, collagen 1 and α-SMA are fibrotic markers produced by activated fibroblasts and by epithelial cells that undergo to epithelial-mesenchymal transition (EMT).
(§2) Table 2: Percentage of inhibition of collagen in epithelial cells (HK2 cells) and fibroblasts (NHDF) and percentage of inhibition of α-SMA in fibroblasts (NRK-49F and NHDF) has been determined for several compounds according the invention. In all cases, the mRNA of collagen and α-SMA has been measured, and the inhibition was evaluated in presence of a respective concentration of the tested compound. The compounds have been tested at different concentrations [mM]. All compounds reduce the expression of collagen and α-SMA in HK-2, NHDF and NRK-49F cells.

Experiment [3] deals with collagen 1 mRNA in NHDF cells. The experiment can be described thus: Inhibition of collagen mRNA in TGF-β-activated NHDF fibroblasts. To be noted: Homo sapiens, compound 0.5 mM. It is filed as cell-based. As for the experimental part: as §1, §2
The subject of experiment [4] is α-SMA mRNA in NRK-49F cells. The experiment can be described thus: Inhibition of α-SMA mRNA in TGF-β-activated NRK-49F fibroblasts. It is filed as cell-based, rat. Conditions: Rattus norvegicus, NRK-49F, compound 0.5 mM. As to the method:
as §1, §2

The test system of another experiment is α-SMA mRNA in NHDF cells. The experiment can be described thus: Inhibition of α-SMA mRNA in TGF-β-activated NHDF fibroblasts. Conditions: Homo sapiens, compound 0.5 mM. It is filed as cell-based. As for the experimental part:
as §1, §2

On to `CCCCCc1ccc(O)c(CC(=O)O)c1` [Compound V, Sodium Salt of (2-hydroxy-5-pentylphenyl)acetic acid], for which the “collagen content in liver (histomorphometry, Masson's trichrome)” value in experiment [1] is “significant reduction”. Further, the inhibition at 500 µM (in experiment [2]; in experiment [3]; in experiment [4]; with α-SMA mRNA in NHDF cells) was 100% in each case.
